One assay relates to H61 xenografts. Briefly: In vivo activity, H61 xenografts in NCR-NU mice. The procedure:
Female NCR-NU mice were randomized and then inoculated with trocar fragments of H61 xenografts obtained from donor animals on Day 0 of the experiment. H61 cells are NIH3T3 cells that have been transfected and transformed with mutant human H-ras. The animals were then re-randomized to treatment groups. Tumor-bearing mice were then treated via subcutaneous (SC) or interperitoneal (IP) injections of Example 1 every 12 hours at various dose levels for 14 days beginning on Day 1. Tumors were measured with calipers in two orthogonal dimensions several times per week for the duration of the experiment. Tumor burdens in milligrams were estimated from the caliper measurements by standard methods (mg=axb^2 /2, where a and b are the measurements of the major and minor axes of the tumor, respectively.) Inhibition of tumor growth was assessed at the last day of treatment (14). […] In mice given Example 1 IP at either 37 or 23 mg/kg/injection, no tumors were evident at the sites of inoculation, indicating complete (100%) inhibition of tumor growth.

Assay [1] deals with H61 cells: NIH transformed 3T3 H-ras cells. Briefly: Clonogenic assay (6 well plates). The format is cell-based. The settings on record: H61 cells in soft agar, colonies counted after Day 13. The procedure: Clonogenic Assay (6 well plates)
Sometime previous to setting up an actual test:
1. Make up 1.5% Bacto Agar in Milli-Q water and autoclave.
2. Make up 500 mL 2× DMEM-HG without phenol red by combining the following:
1 bottle DMEM base powder (Sigma D-5030)
Adjust pH to 7.1 with HCl; filter sterilize.
1. Set up makeshift water bath (beaker of water with thermometer, on hot plate) in the hood. Keep water temperature between 37° C. to 43° C.
2. […] 1.5% Bacto Agar for approximately 2 minutes on high, or until completely melted. Then let it cool somewhat before using it. (You can keep it from resolidifying by setting the bottle on the hot plate.) […]
Bottom Layer (0.6% agar) Top Layer (0.3% agar)
20% calf serum 20% calf serum
40% Bacto Agar (1.5%) 20% Bacto Agar (1.5%)
(H61 cells: NIH transformed
Depending on the volume of each layer needed, use either 50 mL conical tubes or 200 mL turnip tubes which can be floated in the "water bath".
4. Add 1 mL of bottom layer agar/medium to each well: deliver 1 mL warm agar/medium to a well; then using the tip of the pipet, spread the agar/medium around to completely cover the bottom. Repeat with next well.
5. Allow the plates to set at room temperature for about 5 minutes until the bottom layer solidifies.
6. Label sterile Falcon 2054 (12×75 mm) tubes and add appropriate volume of drug solutions into them.
7. Aliquot 4 μL of DMSO or drug solution per 1 mL of agar/medium to appropriate tubes; then add the agar/medium/cells to each tube. Always add 1 mL more than will actually be needed. Mix up and down in the pipet (gently); then deliver 1 mL to the center of each well. The upper layer is less viscous, so it will generally spread out over the bottom layer unaided. If necessary, rotate the plane of the plate gently to spread the top layer evenly over the bottom layer.
8. Let plates set for 5 or 10 minutes at room temperature to solidify, then put into 5% CO2, 37° C. incubator.
9. On Day 13, add 0.5 mL of INT (tetrazolium 1 mg/mL in Milli-Q H2 O, filter sterilized) and return plates to incubator.

Assay [2] has as its target T1, SF9 affinity purified rat farnesyl protein transferase (Rattus norvegicus, UniProt Q02293+Q04631).
T1 construct: made in house; host or cells: Sf9 insect cells (baculovirus system, inferred from b7)
Briefly: PFT inhibitory activity. The format is biochemical. The method, then:
The protein:farnesyltransferase (PFT) or farnesyl protein transferase (FPT) inhibitory activity of compounds of the present invention were assayed in HEPES buffer (pH 7.4) containing 5 mM potassium phosphate and 20 μM ZnCl2. The solution also contained 5 mM DTT (dithiothreitol), 5 mM MgCl2 and 0.1% PEG 8000. Assays were performed in 96 well plates (Wallec) and employed solutions composed of varying concentrations of a compound of the present invention in 100% DMSO (dimethylsulfoxide). Upon addition of both substrates, radiolabeled farnesyl pyrophosphate ([1-^3 H], specific activity 15-30 Ci/mmol, final concentration 134 nM) and (biotinyl)-Ahe-Thr-Lys-Cys-Val-Ile-Met ([3aS[3a alpha, 4 beta, 6a alpha]-hexahydro-2-oxo-1H-thieno[3,4-d]imidazole-5-pentanoic acid]-[7-aminoheptanoic acid]-Thr-Lys-Cys-Val-Ile-Met) (Ahe is 7-aminoheptanoic acid, Thr is threonine, Lys is lysine, Cys is cysteine, Val is valine, Ile is isoleucine and Met is methionine) (final concentration 0.2 μM), the enzyme reaction was started by addition of SF9 affinity purified rat farnesyl protein transferase. After incubation at 30° C. for 30 minutes, the reaction was terminated by diluting the reaction 2.5-fold with a stop buffer containing 1.5 M magnesium acetate, 0.2 M H3 PO4, 0.5% BSA (bovine serum albumin), and strepavidin beads (Amersham) at a concentration of 1.3 mg/mL. After allowing the plate to settle for 30 minutes at room temperature, radioactivity was quantitated on a microBeta counter (Model 1450, Wallec). The assay was also carried out without 5 mM potassium phosphate.

Assay [3] concerns ras farnesylation in ras-transformed cells. Briefly: Gel shift assay. The settings on record: 18-hour incubation. The assay is classed as cell-based. The procedure: Twenty-four hours after planting 2×10^6 ras-transformed cells per treatment condition, the farnesylation inhibitor is added at varying concentrations. Following an 18-hour incubation period, cells are lysed in phosphate-buffered saline containing 1% Triton X-100, 0.5% sodium deoxycholate, and 0.1% SDS (sodium dodecyl sulfate), pH 7.4 in the presence of several protease inhibitors (PMSF (phenylmethylsulfonylfluoride), antipain, leupeptin, pepstatin A, and aprotinin all at 1 μg/mL). Ras protein is immunoprecipitated from the supernatants by the addition of 3 μg v-H-ras Ab-2 (Y13-259 antibody from Oncogene Science). After overnight immunoprecipitation, 30 μL of a 50% protein G-Sepharose slurry (Pharmacia) is added followed by 45-minute incubation. Pellets are resuspended in 2× tris-glycine loading buffer (Novex) containing 5% β-mercaptoethanol and then denatured by 5 minutes boiling prior to electrophoresis on 14% Tris-glycine SDS gels. Using Western transfer techniques, proteins are transferred to nitrocellulose membranes followed by blocking in blocking buffer. Upon overnight incubation with primary antibody (pan-ras Ab-2 from Oncogene Science), an antimouse HRP (horse radish peroxidase) conjugate secondary antibody (Amersham) is employed for detection of the ras protein. Blots are developed using ECL(enhanced chemiluminescence) techniques (Amersham).
In general terms: Mobility shift assays separate free from complexed probe on a gel.

In assay [4] the test system is human lung carcinoma with K-ras mutation and p53 deletion. The conditions noted are these: nude mice; cited from earlier work.
For assay [5], the system named is mammary and salivary carcinomas. The conditions noted are these: daily administration; cited from earlier work.
Assay [6] has as its system EJ-1 human bladder carcinoma, HT1080 human fibrosarcoma and human colon carcinoma xenografts. The conditions noted are these: 100 mg/kg, nude mice; cited from earlier work.
The mark [7] stands for this setting: SC 96 mg/kg/injection every 12 hours for 14 days, last day of treatment (14).
Where [8] appears, read: HEPES buffer pH 7.4 with 5 mM potassium phosphate, read-out: PFT Inhibitory Activity IC50 (μM) HEPES and 5 mM K3 PO4.
Setting [9] is: HEPES buffer pH 7.4 without 5 mM potassium phosphate, read-out: PFT Inhibitory Activity IC50 (μM) HEPES.

pIC50: −log10 of the molar value. Like-named read-outs stand apart in the source and are kept apart here.

As a reminder, the pIC50 is the IC50 on a negative log10 scale, so that one unit is a factor of ten. Read a high pIC50 as a low IC50. One may read the IC50 as the concentration needed to halve the response being measured.

`O=C(CN(Cc1ccc(OCc2ccccc2)cc1)C(=O)[C@H](Cc1c[nH]cn1)NC(=O)OCc1ccccc1)NCC1(c2ccccc2)CCC1` [Example 1, (S)-[1-((4-Benzyloxy-benzyl)-{[1-(phenyl-cyclobutylmethyl)-carbamoyl]-methyl}-carbamoyl)-2-(1H-imidazol-4-yl)-ethyl]-carbamic Acid benzyl ester]: the “inhibition of tumor growth” value is reported as 100% in the assay with H61 xenografts (IP 23 mg/kg/injection every 12 hours for 14 days, no tumors evident at sites of inoculation); 100% with H61 xenografts (IP 37 mg/kg/injection every 12 hours for 14 days, no tumors evident at sites of inoculation); 73% in the assay with H61 xenografts (setting [7]). Besides, in the assay with H61 xenografts (setting [7]), the “median tumor burden of the treated group” value came to 672 mg. For the same compound, in the assay on H61 xenografts (SC or IP every 12 hours for 14 days), the “inhibition of tumor growth (in words)” value is on record as “significantly inhibited tumor growth”. For the same compound, the pIC50 in assay [1] is 7.33. For the same compound, the IC50 in assay [2] (setting [8]) was determined as 0.006 µM; in assay [2] (setting [9]), 0.075 µM. Further, the “Gel Shift (μM) M.E.D. (minimal effective dose to observe inhibition of ras farnesylation)” value in assay [3] came out at 0.02 µM.
Compound `O=C(CN(Cc1ccc(OCc2ccccn2)cc1)C(=O)[C@H](Cc1c[nH]cn1)NC(=O)OCc1ccccc1)NCC1(c2ccccc2)CCC1` [Example 3] showed a negative-log IC50 (pIC50) in assay [1] of 6.85. Besides, the IC50 was found to be 0.0017 µM in assay [2] (setting [8]) and 0.14 µM in assay [2] (setting [9]). Besides, the “Gel Shift (μM) M.E.D. (minimal effective dose to observe inhibition of ras farnesylation)” value in assay [3] turned out to be 0.002 µM.
Regarding `CSCC[C@H](NC(=O)c1ccc(NC[C@@H](N)CS)cc1-c1ccccc1)C(=O)O` [FTI276], the “tumor growth (in words)” value in assay [4] is recorded as “selectively block tumor growth”.
For `CC[C@H](C)[C@@H](CO[C@@H](Cc1ccccc1)C(=O)N[C@@H](CCS(C)(=O)=O)C(=O)OC(C)C)NC[C@@H](N)CS` [L-744,832], in assay [5], the “tumor regression (in words)” value is recorded as “caused tumor regression”.
In assay [1] (312 h), `COc1ccc(CN(CC(=O)NCC2(c3ccccc3)CCC2)C(=O)[C@H](Cc2c[nH]cn2)NC(=O)OCc2ccccc2)cc1` [Example 6, (S)-[1-((4-Methoxy-benzyl)-{[(1-phenyl-cyclobutyl-methyl)-carbamoyl]-methyl}-carbamoyl)-2-(1H-imidazol-4-yl)-ethyl]-carbamic Acid benzyl Ester] showed a pIC50 of 6.68. Moreover, the IC50 in assay [2] (setting [8]) is 0.0029 µM; in assay [2] (setting [9]), 0.26 µM. Moreover, the “Gel Shift (μM) M.E.D. (minimal effective dose to observe inhibition of ras farnesylation)” value in assay [3] amounted to 0.002 µM.
Take `COC(=O)[C@H](CCSC)NC(=O)[C@H](/C=C\[C@@H](/C=C/[C@@H](N)CS)C(C)C)Cc1ccccc1` [Example B1086]: the “tumor growth (in words)” value in assay [6] is listed as “inhibit tumor growth”.
`O=C(CN(Cc1ccc(OCc2ccccc2)cc1)C(=O)[C@H](Cc1c[nH]cn1)NC(=O)OCc1ccccc1)NCC1(c2ccccc2)CCCC1` [Example 5, (S)-[1-((4-Benzyloxy-benzyl)-{[(1-phenyl-cyclopentylmethyl)-carbamoyl]-methyl}-carbamoyl)-2-(1H-imidazol-4-yl)-ethyl]-carbamic Acid benzyl Ester]: in assay [1] (312 h), the pIC50 was 6.49. In addition, the results for the IC50 in assay [2] (setting [8]) and in assay [2] (setting [9]) were 0.018 µM and 0.32 µM, respectively. Further, the “Gel Shift (μM) M.E.D. (minimal effective dose to observe inhibition of ras farnesylation)” value in assay [3] amounted to 0.2 µM.
For `O=C(CN(Cc1ccc(OCc2ccccc2)cc1)C(=O)[C@H](Cc1c[nH]cn1)NC(=O)OCc1ccccc1)NCC1(c2ccccc2)CC1` [Example 2], the pIC50 in assay [1] is 6.74. In addition, the IC50 in assay [2] (setting [8]) is 0.006 µM; in assay [2] (setting [9]), 0.15 µM. In addition, in assay [3], the “Gel Shift (μM) M.E.D. (minimal effective dose to observe inhibition of ras farnesylation)” value is 0.02 µM.

Values taken from patent US6281194A, “Cycloalkyl inhibitors of protein farnesyltransferase” (Warner-Lambert Company, priority 1999, dated 2001).
